According to publication PMC3841161, “De Novo Design and Synthesis of Ultra-Short Peptidomimetic Antibiotics Having Dual Antimicrobial and Anti-Inflammatory Activities” (PLoS ONE, 2013):
Residues, ends and D or L forms follow the SMILES beside them.

Columns and labels:
[1] = system: S. epidermidis [KCTC 1917]; type: cell-based, Staphylococcus epidermidis; settings: broth microdilution, 1% peptone, 18−20 h at 37°C, absorbance at 600 nm
Procedure: (§1) The antimicrobial activity of the peptides against two Gram-positive bacterial strains and two Gram-negative bacterial strains was examined using the broth microdilution method in sterile 96-well plates. Aliquots (100 µL) of a bacterial suspension at 2×10^6 colony-forming units (CFU)/mL in 1% peptone were added to 100 µL of the peptide solution (serial two-fold dilutions in 1% peptone). After incubation for 18−20 h at 37°C, bacterial growth inhibition was determined by measuring the absorbance at 600 nm with a Microplate Autoreader EL 800 (Bio-Tek Instruments, VT). The minimal inhibitory concentration (MIC) was defined as the minimum peptide concentration inhibited bacteria growth. Two types of Gram-positive bacteria (S. epidermidis [KCTC 1917] and S. aureus [KCTC 1621]) and two types of Gram-negative bacteria (E. coli [KCTC 1682] and P. aeruginosa [KCTC 1637]) were procured from the Korean Collection for Type Cultures (KCTC) at the Korea Research Institute of Bioscience and Biotechnology (KRIBB). MRSA samples (CCARM 3089, CCARM 3090, and CCARM 3095) were obtained from the Culture Collection of Antibiotic-Resistant Microbes (CCARM) at Seoul Women's University (Seoul, Korea).

[2] = system: four bacterial strains (E. coli, P. aeruginosa, S. epidermidis, S. aureus); type: cell-based; settings: four bacterial strains
Procedure: (§2) The prokaryotic selectivity of our designed HDAMPs is defined by the therapeutic index (TI) as a measure of the relative safety of the drug. It is a measure of a peptide's capability to differentiate any pathogen from a host cell. The TI value of each peptide was calculated as the ratio of the HC10 (the peptide concentration that produces 10% hemolysis toward hRBCs) to the geometric mean [GM; the geometric mean of the minimal inhibitory concentration (MIC) against four selected bacterial strains]. Larger values of TI correspond to greater prokaryotic selectivity.
as §1

[3] = system: P. aeruginosa [KCTC 1637]; type: cell-based, Pseudomonas aeruginosa; settings: broth microdilution, 1% peptone, 18−20 h at 37°C, absorbance at 600 nm
Procedure: as §1

[4] = system: human red blood cells (hRBCs); assay: Hemolytic activity; type: cell-based; settings: 4% (v/v) hRBCs in PBS pH 7.4, 1 h at 37°C, absorbance at 405 nm; maximum concentration 256 µg/mL
Procedure: Hemolytic activity of peptides was tested against hRBCs. Fresh hRBCs were washed three times with phosphate-buffered saline (PBS; 35-mM phosphate buffer containing 150 mM of NaCl, pH 7.4) by centrifugation for 10 min at 1000×g and then re-suspended in PBS. The peptide solutions (serial two-fold dilutions in PBS) were then added to 100 µL of hRBCs in PBS to give a final volume of 200 µL and a final erythrocyte concentration of 4% (v/v). The resulting suspension was incubated with agitation for 1 h at 37°C. The samples were then centrifuged at 1000×g for 5 min, and hemoglobin release was monitored by measuring the absorbance of the supernatant at 405 nm. No hemolysis (blank) and 100% hemolysis controls consisted of hRBCs suspended in PBS and 0.1% Triton X-100, respectively. Percent hemolysis was calculated using the following equation: [drawing 1]

S. aureus [KCTC 1621] = type: cell-based, Staphylococcus aureus; settings: broth microdilution, 1% peptone, 18−20 h at 37°C, absorbance at 600 nm
Procedure: as §1

E. coli [KCTC 1682] = type: cell-based, Escherichia coli; settings: broth microdilution, 1% peptone, 18−20 h at 37°C, absorbance at 600 nm
Procedure: as §1

[5] = system: hRBCs versus four bacterial strains; assay: Prokaryotic selectivity (therapeutic index, HC10/GM); settings: ratio of HC10 to GM; 512 µg/mL used for HC10 >256 and 128 µg/mL for MIC >64
Procedure: as §2

trypsin = assay: Protease stability by radial diffusion assay; type: in vitro ADME; settings: 5 µL of 10 mg/mL peptide in 25 µL of 0.2-µg/mL trypsin in PBS, 37°C, text: 24 h, method: 6 h
Procedure: E. coli (KCTC 1682) was grown overnight for 18 h at 37°C in 10 mL of LB broth, and then 10 µl of this culture was inoculated into 10 mL of fresh LB and incubated for an additional 3 h at 37°C to obtain mid-logarithmic-phase organisms. For the radial diffusion assay method, a bacteria suspension (2×10^6 CFU/mL in LB) was mixed with 0.7% agarose. The mixture was poured into a 10-cm petri dish after rapidly dispersing. Five microliters of an aqueous peptide stock solution (10 mg/mL) were added to 25 µL of the 0.2-µg/mL trypsin solution in PBS, respectively, and incubated at 37°C for 6 h. The reaction was stopped by freezing with liquid nitrogen, and then 10-µL aliquots were placed in each circle paper (≈6 mm in diameter) put on the agarose plates and then incubated at 37°C overnight. The diameters of the bacterial clearance zones surrounding the circle paper were measured for the quantitation of inhibitory activities.

[6] = Hydrophobicity by RP-HPLC retention time; type: physicochemical; settings: measure of hydrophobicity; Vydac C18 analytical column 5 µm, 4.6 mm ×250 mm; linear gradient 0–90% acetonitrile in water, 0.05% TFA, 60 min
Text: A series of Trp (W)/Arg (R)–rich peptides [(WR)3-NH2, (WR)2-NH2 and RWR-NH2], reported as being short and potent antimicrobial peptides, were used as sequence templates, and their antimicrobial and hemolytic activities were compared to seven HDAMPs (Figure 2). Matrix-assisted laser-desorption ionization time-of-flight mass spectrometry (MALDI-TOF MS) was used to verify the molecular weight of both Trp/Arg-rich AMPs and the seven HDAMPs. Human cathelicidin LL-37, a potent antimicrobial and anti-inflammatory peptide, served as a positive control for comparing the antimicrobial, hemolytic, and anti-inflammatory activities. The hydrophobicity of all of the peptides was measured with the use of reverse-phase high-performance liquid chromatography (RP-HPLC) retention time (Rt).
All peptides were prepared by Fmoc SPPS methods using Rink amide with an initial loading of 0.61 mmol/g, unless otherwise noted. Fmoc-Arg(Pbf)-OH and other Fmoc-protected amino acids were purchased from Novabiochem. Resins were swollen in DMF for 45 min prior to synthesis. […] The final purity and hydrophobicity of the peptides (>98%) were assessed by RP-HPLC on an analytical Vydac C18 column (4.6 mm ×25 0 mm, 300 Å, 5 µm particle size, Table 3). The molecular masses of purified peptides were determined using MALDI-TOF MS (Shimadzu, Japan).

N=C(N)NCCC[C@H](NC(=O)[C@H](Cc1c[nH]c2ccccc12)NC(=O)[C@H](CCCNC(=N)N)NC(=O)[C@@H](N)Cc1c[nH]c2ccccc12)C(N)=O [(WR)2-NH2, reference compound] (H-WRWR-NH2)
Minimal Inhibitory Concentration (MIC) S. epidermidis [KCTC 1917] [1]: 8 (11.4) µg/mL
GM, geometric mean of the MIC values against four bacterial strains [2]: 26 (37) µg/mL
Minimal Inhibitory Concentration (MIC) P. aeruginosa [KCTC 1637] [3]: 32 (45.6) µg/mL
% Hemolysis (HC10), peptide concentration that induces 10% hemolysis against human erythrocytes [4]: >256 (>364.5) µg/mL
Minimal Inhibitory Concentration (MIC) S. aureus [KCTC 1621] (S. aureus [KCTC 1621]): 32 (45.6) µg/mL
Minimal Inhibitory Concentration (MIC) E. coli [KCTC 1682] (E. coli [KCTC 1682]): 32 (45.6) µg/mL
TI (HC10/GM), therapeutic index [5]: 19.7

CC[C@H](C)[C@H](NC(=O)CN)C(=O)NCC(=O)N[C@@H](C)C(=O)N[C@H](C(=O)N[C@@H](CC(C)C)C(=O)N[C@@H](CCCCN)C(=O)N[C@H](C(=O)N[C@@H](CC(C)C)C(=O)N[C@H](C(=O)N[C@H](C(=O)NCC(=O)N[C@@H](CC(C)C)C(=O)N1CCC[C@H]1C(=O)N[C@@H](C)C(=O)N[C@@H](CC(C)C)C(=O)N[C@H](C(=O)N[C@@H](CO)C(=O)N[C@@H](Cc1c[nH]c2ccccc12)C(=O)N[C@H](C(=O)N[C@@H](CCCCN)C(=O)N[C@@H](CCCNC(=N)N)C(=O)N[C@@H](CCCCN)C(=O)N[C@@H](CCCNC(=N)N)C(=O)N[C@@H](CCC(N)=O)C(=O)N[C@@H](CCC(N)=O)C(N)=O)[C@@H](C)CC)[C@@H](C)CC)[C@@H](C)O)[C@@H](C)O)C(C)C)C(C)C [melittin]
antimicrobial activity against E. coli (KCTC 1682) in the presence of trypsin (in words) (trypsin): completely lost their antimicrobial activities

N=C(N)NCCC[C@H](NC(=O)[C@H](Cc1c[n+](CCCCCCCc2ccccc2)cn1CCCCCCCc1ccccc1)NC(=O)[C@H](CCCNC(=N)N)NC(=O)[C@@H](N)Cc1c[n+](CCCCCCCc2ccccc2)cn1CCCCCCCc1ccccc1)C(N)=O [Tetrameric HDAMP, His((CH2)7C6H5)2-Arg-His((CH2)7C6H5)2-Arg-NH2]
RP-HPLC retention time (Rt) [6]: 37.7 min

CC[C@H](C)[C@H](NC(=O)[C@H](CCCCN)NC(=O)[C@H](CCC(=O)O)NC(=O)[C@H](CCCCN)NC(=O)[C@H](CO)NC(=O)[C@H](CCCCN)NC(=O)[C@H](CCCNC(=N)N)NC(=O)[C@H](Cc1ccccc1)NC(=O)[C@H](Cc1ccccc1)NC(=O)[C@H](CC(=O)O)NC(=O)CNC(=O)[C@H](CC(C)C)NC(=O)[C@@H](N)CC(C)C)C(=O)NCC(=O)N[C@@H](CCCCN)C(=O)N[C@@H](CCC(=O)O)C(=O)N[C@@H](Cc1ccccc1)C(=O)N[C@@H](CCCCN)C(=O)N[C@@H](CCCNC(=N)N)C(=O)N[C@H](C(=O)N[C@H](C(=O)N[C@@H](CCC(N)=O)C(=O)N[C@@H](CCCNC(=N)N)C(=O)N[C@H](C(=O)N[C@@H](CCCCN)C(=O)N[C@@H](CC(=O)O)C(=O)N[C@@H](Cc1ccccc1)C(=O)N[C@@H](CC(C)C)C(=O)N[C@@H](CCCNC(=N)N)C(=O)N[C@@H](CC(N)=O)C(=O)N[C@@H](CC(C)C)C(=O)N[C@H](C(=O)N1CCC[C@H]1C(=O)N[C@@H](CCCNC(=N)N)C(=O)N[C@H](C(=O)N[C@@H](CCC(=O)O)C(=O)N[C@@H](CO)C(=O)O)[C@@H](C)O)C(C)C)[C@@H](C)CC)C(C)C)[C@@H](C)CC [LL-37]
antimicrobial activity against E. coli (KCTC 1682) in the presence of trypsin (in words) (trypsin): completely lost their antimicrobial activities
